Experiments:
Assay type in all cases: cell-based
[1] = Cell viability test (CellTiter-Fluor) in HCV 1b replicon cells; settings: human, HCV 1b replicon Huh7 cells, 3 days culture, read-out: CC50 (half cytotoxic concentration)
Protocol: (§1) Each of the compounds prepared in the above examples of the present invention was dissolved at 10 mM in DMSO, then diluted to 50 μM with DMEM complete medium, then diluted to 20 nM with complete medium containing 0.5% DMSO, and then serially diluted by 3-fold, to obtain a total of 10 concentrations.
(§2) HCV 1b replicon cells, i.e., Huh7 cell line stably transfected with HCV genotype 1b replicon, were provided by WuXi AppTec (Shanghai) Co., Ltd. Specific preparation methods of Huh7 lb replicon cell system can be found in Lohmann V, Korner F, Koch J, Herian U, Theilmann L, Bartenschlager R., Replication of subgenomic hepatitis C virus RNAs in a hepatoma cell line, Science 285 (5424): 110-113 (1999).
(§3) 1) Preparation of compounds: adding 75 μl of the compounds of the present invention at the above concentration gradient to a 96-well plate using POD810 system, with each concentration for each compound in duplicate;
(§4) 2) Preparation of cells: collecting HCV 1b replicon cells in logarithmic phase and resuspending them in DMEM complete medium, and then adding 75 μl of the cell suspension to each well of the above 96-well plate (8×10^3 cells/well); at the same time, establishing zero percent effect (ZPE) control group and hundred percent effect (HPE) control group, with ZPE group using complete culture medium containing 0.5% DMSO instead of the compound, and the HPE group merely containing DMEM medium in the wells.
(§5) 3) Cell culture: placing the 96-well plate in a 37° C., 5% CO2 incubator and culturing for 3 days.
(§6) 4) Cell viability test: after adding detection reagent for fluorescence assay of cell growth to each well and culturing the cells in a 37° C., 5% CO2 incubator for one hour, detecting the fluorescence signal values using the multimode microplate reader, with the raw data (RFU) being used for calculation of the cytotoxicity of the compounds;
(§7) 6) Data processing: processing the raw data using the following formula into the inhibition percentage of the compound against HCV replicon (Inhibition %) and the percentage of cell viability (Viability %): Inhibition %=(RLUZPE−RLUCPD)/(RLUZPE−RLUHPE)×100 Viability %=(RFUCPD−RFUHPE)/(RFUZPE−RFUHPE)×100 wherein CPD: the fluorescence signal value of the well of the compound; ZPE (zero percent effect): the fluorescence signal value of the zero percent effect control; HPE (hundred percent effect): the fluorescence signal value of the hundred percent effect control.
(§8) The Inhibition % and Viability % were introduced into GraphPad Prism software for data processing, respectively, to obtain the half effective concentration EC50 of the compound against HCV replicon and the half cytotoxic concentration CC50.

[2] = Cell viability test (CellTiter-Fluor) in HCV 1a replicon cells; settings: human, Huh7 cells stably transfected with HCV genotype 1a replicon; HCV 1a replicon Huh7 cells, 3 days culture; read-out: CC50 (half cytotoxic concentration)
Protocol: as §6, §7, §8
(§9) HCV 1a replicon cells, i.e., Huh7 cell line stably transfected with HCV genotype 1a replicon (provided by WuXi AppTec (Shanghai) Co., Ltd.) were used as the experimental cells. As described above for the HCV 1b replicon cell system, the HCV genotype 1a replicon cell systems were similarly prepared.
(§10) The anti-HCV-1a activities of the compounds of the present invention were tested according to the method for testing the anti-HCV-1b replicon activity in Experimental Example 1.

[3] = system: HCV genotype 1a replicon; assay: Anti-HCV-1a replicon activity (luciferase, Bright-Glo); settings: Hepatitis C virus, Huh-7, 72 h, read-out: EC50 against HCV-1a replicon
Protocol: as §3, §4, §5
(§11) 5) Anti-HCV replicon activity assay: adding luciferase luminescence substrate Bright-Glo to each well, and detecting luminescence signal values using the multimode microplate reader within 5 min, with the raw data (RLU) being used for calculation of the anti-HCV activities of the compounds;
as §7, §8, §9, §10

[4] = system: HCV genotype 1b replicon; assay: Anti-HCV-1b replicon activity (luciferase, Bright-Glo); settings: Hepatitis C virus, Huh-7, 72 h, read-out: EC50 against HCV-1b replicon
Protocol: as §1, §2, §3, §4, §5, §11, §7, §8

[5] = Huh7 cells stably transfected with HCV genotype 1b replicon

Row | Structure (SMILES) | CC50 at 3 days [1, 5] | CC50 at 3 days [2] | EC50 [3] | EC50 [4] | CC50 at 3 days [1]
1 | COC(=O)N[C@H](C(=O)N1CC2(C[C@H]1c1ncc(-c3ccc4c(c3)C(F)(F)C(F)(F)c3cc(-c5cnc([C@@H]6CC7(CN6C(=O)[C@@H](NC(=O)OC)C(C)C)OCCO7)[nH]5)ccc3-4)[nH]1)OCCO2)C(C)C [Example 17, Dimethyl ((2S,2′S)-((2S,2′S)-2,2′-(5,5′-(9,9,10,10-tetrafluoro-9,10-dihydrophenanthren-2,7-diyl)bis(1H-imidazol-5,2-diyl))bis(1,4-dioxa-7-azaspiro[4.4]nonan-7,8-diyl))bis(3-methyl-1-oxobutan-2,1-diyl))dicarbamate] | > 10 nM | > 10 nM | 0.175 nM | 0.007 nM | 
2 | COC(=O)N[C@H](C(=O)N1[C@@H]2CC[C@@H](C2)[C@H]1c1ncc(-c2ccc3c(c2)C(F)(F)C(F)(F)c2cc(-c4cnc([C@@H]5[C@H]6CC[C@H](C6)N5C(=O)[C@@H](NC(=O)OC)C(C)(C)C)[nH]4)ccc2-3)[nH]1)C(C)(C)C [Example 4, Dimethyl (2S,2′S)-1,1′-((1R,1′R,3S,3′S,4S,4′S)-3,3′-(5,5′-(9,9,10,10-tetrafluoro-9,10-dihydrophenanthren-2,7-diyl)bis(1H-imidazol-5,2-diyl))bis(2-azabicyclo[2.2.1]heptan-3,2-yl))bis(3,3-dimethyl-1-oxobutan-2,1-diyl)dicarbamate] | > 10 nM |  |  | 0.047 nM | 
3 | COC(=O)N[C@H](C(=O)N1CCC[C@H]1c1ncc(-c2ccc3c(c2)C(F)(F)C(F)(F)c2cc(-c4cnc([C@@H]5CC6(CN5C(=O)[C@@H](NC(=O)OC)C(C)C)OCCO6)[nH]4)ccc2-3)[nH]1)C(C)C [Example 14, Methyl N-((2S)-1-((S)-2-(5-(7-((S)-2-(7-((S)-2-((methoxycarbonyl)amino)-3-methylbutanoyl)-1,4-dioxa-7-azaspiro[4.4]nonan-8-yl)-1H-imidazol-5-yl)-9,9,10,10-tetrafluoro-9,10-dihydrophenanthren-2-yl)-1H-imidazol-2-yl)pyrrolidin-1-yl)-3-methyl-1-oxobutan-2-yl)carbamate] | > 10 nM | > 10 nM | 0.15 nM | 0.006 nM | 
4 | COC(=O)N[C@H](C(=O)N1CCC[C@H]1c1ncc(-c2ccc3c(c2)C(F)(F)C(F)(F)c2cc(-c4cnc([C@@H]5CCCN5C(=O)[C@@H](NC(=O)OC)C(C)(C)C)[nH]4)ccc2-3)[nH]1)C(C)(C)C [Example 7, Dimethyl (2S,2′S)-1,1′-((2S,2′S)-2,2′-(5,5′-(9,9,10,10-tetrafluoro-9,10-dihydrophenanthren-2,7-diyl)bis(1H-imidazol-5,2-diyl))bis(pyrrolidin-2,1-diyl))bis(3,3-dimethyl-1-oxobutan-2,1-diyl)dicarbamate] | > 10 nM |  |  | 0.0063 nM | 
5 | COC(=O)N[C@H](C(=O)N1CCC[C@H]1c1ncc(-c2ccc3c(c2)C(F)(F)C(F)(F)c2cc(-c4cnc([C@@H]5CCCN5C(=O)[C@@H](NC(=O)OC)C(C)C)[nH]4)ccc2-3)[nH]1)C(C)C [Example 1, Dimethyl (2S,2′S)-1,1′-((2S,2′S)-2,2′-(5,5′-(9,9,10,10-tetrafluoro-9,10-dihydrophenanthren-2,7-diyl)bis(1H-imidazol-5,2-diyl))bis(pyrrolidin-2,1-diyl))bis(3-methyl-1-oxobutan-2,1-diyl)dicarbamate] | > 10 nM | > 10 nM | 0.19 nM | 0.0046 nM | 
6 | COC(=O)N[C@H](C(=O)N1CCC[C@H]1c1ncc(-c2ccc3c(c2)C(F)(F)C(F)(F)c2cc(-c4cnc([C@@H]5CCCN5C(=O)[C@@H](NC(=O)OC)[C@@H](C)O)[nH]4)ccc2-3)[nH]1)[C@@H](C)O [Example 8, Dimethyl ((2S,2′S,3R,3′R)-((2S,2′S)-2,2′-(5,5′-(9,9,10,10-tetrafluoro-9,10-dihydrophenanthren-2,7-diyl)bis(1H-imidazol-5,2-diyl))bis(pyrrolidin-2,1-diyl))bis(3-hydroxy-1-oxobutan-2,1-diyl))dicarbamate] | > 10 nM |  |  | 0.058 nM | 
7 | COC(=O)N[C@H](C(=O)N1CCCC1c1ncc(-c2ccc(-c3ccc4c(c3)C(F)(F)C(F)(F)c3cc(-c5ccc(-c6cnc([C@@H]7CCCN7C(=O)[C@@H](NC(=O)OC)C(C)(C)C)[nH]6)cc5)ccc3-4)cc2)[nH]1)C(C)(C)C (stereo partly drawn) [Example 2, dimethyl (2S,2′S)-1,1′-((2S,2′S)-2,2′-(5,5′-(4,4′-(9,9,10,10-tetrafluoro-9,10-dihydrophenanthren-2,7-diyl)bis(4,1-phenylene))bis(1H-imidazol-5,2-diyl))bis(pyrrolidin-2,1-diyl))bis(3,3-dimethyl-1-oxobutan-2,1-diyl)dicarbamate] | > 10 nM |  |  | 0.017 nM | 
8 | COC(=O)N[C@H](C(=O)N1[C@@H]2CC[C@@H](C2)[C@H]1c1ncc(-c2ccc3c(c2)C(F)(F)C(F)(F)c2cc(-c4cnc([C@@H]5[C@H]6CC[C@H](C6)N5C(=O)[C@@H](NC(=O)OC)[C@@H](C)OC)[nH]4)ccc2-3)[nH]1)[C@@H](C)OC [Example 6, Dimethyl (2S,2′S,3R,3′R)-1,1′-((1R,1′R,3S,3′S,4S,4′S)-3,3′-(5,5′-(9,9,10,10-tetrafluoro-9,10-dihydrophenanthren-2,7-diyl)bis(1H-imidazol-5,2-diyl))bis(2-azabicyclo[2.2.1]heptan-3,2-diyl))bis(3-methoxy-1-oxobutan-2,1-diyl)dicarbamate] | > 10 nM |  |  | 0.014 nM | 
9 | COC(=O)N[C@H](C(=O)N1CCC[C@H]1c1ncc(-c2ccc3c(c2)C(F)(F)C(F)(F)c2cc(-c4cnc([C@@H]5CCCN5C(=O)[C@@H](NC(=O)OC)[C@@H](C)OC)[nH]4)ccc2-3)[nH]1)[C@@H](C)OC [Example 13] | > 10 nM |  |  | 0.056 nM | 
10 | COC(=O)N[C@H](C(=O)N1[C@@H]2CC[C@@H](C2)[C@H]1c1ncc(-c2ccc3c(c2)C(F)(F)C(F)(F)c2cc(-c4cnc([C@@H]5[C@H]6CC[C@H](C6)N5C(=O)[C@@H](NC(=O)OC)C(C)C)[nH]4)ccc2-3)[nH]1)C(C)C [Example 3, Dimethyl (2S,2′S)-1,1′-((1R,1′R,3S,3′S,4S,4′S)-3,3′-(5,5′-(9,9,10,10-tetrafluoro-9,10-dihydrophenanthren-2,7-diyl)bis(1H-imidazol-5,2-diyl))bis(2-azabicyclo[2.2.1]heptan-3,2-yl))bis(3-methyl-1-oxobutan-2,1-diyl)dicarbamate] |  |  |  | 0.017 nM | > 10 nM
11 | COC(=O)N[C@H](C(=O)N1[C@@H]2CC[C@@H](C2)[C@H]1c1ncc(-c2ccc3c(c2)C(F)(F)C(F)(F)c2cc(-c4cnc([C@@H]5[C@H]6CC[C@H](C6)N5C(=O)[C@@H](NC(=O)OC)[C@@H](C)O)[nH]4)ccc2-3)[nH]1)[C@@H](C)O [Example 5, Dimethyl (2S,2′S,3R,3′R)-1,1′-((1R,1′R,3S,3′S,4S,4′S)-3,3′-(5,5′-(9,9,10,10-tetrafluoro-9,10-dihydrophenanthren-2,7-diyl)bis(1H-imidazol-5,2-diyl))bis(2-azabicyclo[2.2.1]heptan-3,2-diyl))bis(3-hydroxy-1-oxobutan-2,1-diyl)dicarbamate] |  |  |  | 0.041 nM | > 10 nM
